Test results taken from ChEMBL document CHEMBL1132307, “(2R,1'S,2'R,3'S)-2-(2'-Carboxy-3'-phenylcyclopropyl)glycine (PCCG-13), the first potent and selective competitive antagonist of phospholipase D-coupled metabotropic glutamate receptors: asymmetric synthesis and preliminary biological properties” (J Med Chem, 1999).

What was measured:
Type in all cases: functional, tissue-based
Settings in all cases: Hippocampus
[1] = Antagonistic activity against phospholipase D (PLD) was determined in adult rat hippocampal slices
[2] = Agonistic activity against phospholipase D (PLD) was determined in adult rat hippocampal slices
[3] = Antagonistic activity against phospholipase C (PLC) was determined in adult rat hippocampal slices

IC50 [1] [µM] | IC50 [3] [µM] | Compound | EC50 [2] [µM]
530 | – | CC(N)(C(=O)O)c1ccc(C(=O)O)cc1 (stereo unspecified) | 110
– | – | N[C@@]1(C(=O)O)CC[C@@H](C(=O)O)C1 | 30
70 | – | N[C@H](C(=O)O)c1cc(O)cc(O)c1 | –
0.025 | > 300 | NC(C(=O)O)[C@@H]1[C@H](C(=O)O)[C@H]1c1ccccc1 (stereo partly specified) | –
